Read-outs that look alike come from different tables or passages of the source. Marks after values point to notes of the source that are not given here.
Assays:
[1] = Tacrolimus pharmacokinetic profiles and trough level monitoring before and after switch of booster from ritonavir to cobicistat in an HIV-infected kidney transplant recipient; assay type: in vivo, human; settings: for AUC(0-t): read-out: AUC264h; for half-life: read-out: T1/2 (elimination half-life) (converted)
Source text: Due to the high daily pill burden (i.e., 4 tablets mycophenolate mofetil, 10 tablets for the antiretroviral regimen, 7 pills for the treatment of cardiovascular risk factors, and 8 pills for additional indications), and with new combination antiretroviral pills available, a treatment simplification was envisaged. A feasible antiretroviral treatment considering the multi-drug resistant HIV virus was the combination of dolutegravir (INSTI), rilpivirine (NNRTI), maraviroc and the single tablet combination including emtricitabine, tenofovir alafenamide and darunavir boosted with cobicistat (darunavir/c). […] Due to the inducing properties of ritonavir, we predicted that a switch to cobicistat could result in higher tacrolimus concentrations. During three weeks before and three weeks after the switch we closely monitored tacrolimus drug levels (3 full pharmacokinetic profiles before and after changing the booster) to evaluate the effect on tacrolimus exposure (Figs. 1, 2).
Fig. 1 Tacrolimus profiles during ritonavir-boosted and cobicistat-boosted antiretroviral regimens. Three 11 days pharmacokinetic tacrolimus concentrations profiles in blue while on the ritonavir-boosted regimen before the switch and in red while on the cobicistat-boosted regimen after the switch. *For practical reasons (weekend, holidays) tacrolimus trough levels were measured on day 9 at the end of the third pharmacokinetic profile and on day 10 at the end of the sixth pharmacokinetic profile
Fig. 2 Antiretroviral treatment and tacrolimus trough levels before and after therapy switch. Blue bars indicate drugs before switch and blue dots tacrolimus levels before switch. Red bars indicate drugs after switch and red dots indicate tacrolimus trough levels after switch.

[2] = as above; assay type: in vivo, human; settings: co-administered with darunavir/ritonavir 800/100 mg once daily, 3rd pharmacokinetic profile, dosing interval 10 days for practical reasons
[3] = set-up: method as in PMID 25708713; settings: co-administered with ritonavir; cited from earlier work
[4] = renal transplant recipients in absence of strong inhibitors; cited from earlier work
[5] = human, plasma, oral, co-administered with darunavir/cobicistat 800/150 mg once daily, 1st pharmacokinetic profile
[6] = human, plasma, oral, co-administered with darunavir/cobicistat 800/150 mg once daily, 2nd pharmacokinetic profile
[7] = human, plasma, oral, co-administered with darunavir/cobicistat 800/150 mg once daily, 3rd pharmacokinetic profile

For `C=CC[C@@H]1/C=C(\C)C[C@H](C)C[C@H](OC)[C@H]2O[C@@](O)(C(=O)C(=O)N3CCCC[C@H]3C(=O)O[C@H](/C(C)=C/[C@@H]3CC[C@@H](O)[C@H](OC)C3)[C@H](C)[C@@H](O)CC1=O)[C@H](C)C[C@@H]2OC` [Tacrolimus, tacrolimus], the Tmax ([1]; co-administered with darunavir/cobicistat 800/150 mg once daily, 1st pharmacokinetic profile) was 2 h, the “C0h (pre-dose plasma concentration)” value ([1]; co-administered with darunavir/cobicistat 800/150 mg once daily, 2nd pharmacokinetic profile, tacrolimus once every 11 days) was 4.1 µg/L and the “C0h (pre-dose plasma concentration)” value ([1]; co-administered with darunavir/cobicistat 800/150 mg once daily, 3rd (sixth overall) pharmacokinetic profile, dosing interval 10 days for practical reasons) was 4.0^a µg/L. For the same compound, the “C0h (pre-dose plasma concentration)” value ([1]; co-administered with darunavir/ritonavir 800/100 mg once daily, 1st pharmacokinetic profile, tacrolimus once every 11 days) was 7.3 µg/L, the “C0h (pre-dose plasma concentration)” value ([1]; co-administered with darunavir/ritonavir 800/100 mg once daily, 2nd pharmacokinetic profile, tacrolimus once every 11 days) was 6.1 µg/L and the “C0h (pre-dose plasma concentration)” value ([1]; darunavir/cobicistat 800/150 mg once daily section, 1st profile, trough at the day of the switch, i.e. last trough on darunavir/ritonavir, immediately before darunavir/cobicistat) was 6.8^b µg/L. For the same compound, the tacrolimus trough level ([1]; eleven months post pharmacokinetic booster switch (cobicistat-boosted regimen), dosing interval 11 days) was 2.1 µg/L, the Cmax ([1]; human, plasma, oral, 0.5 mg, co-administered with darunavir/ritonavir 800/100 mg once daily, 1st pharmacokinetic profile) was 15.1 ng/mL and the Cmax ([1]; human, plasma, oral, 0.5 mg, co-administered with darunavir/ritonavir 800/100 mg once daily, 2nd pharmacokinetic profile) was 17.7 ng/mL. For the same compound, the Cmax ([1]; human, plasma, oral, 0.5 mg, co-administered with darunavir/ritonavir 800/100 mg once daily, 3rd pharmacokinetic profile) was 17.6 ng/mL, the Cmax [1, 5] was 11.7 ng/mL and the AUC(0-t) ([1]; human, plasma, oral, co-administered with darunavir/cobicistat 800/150 mg once daily, 1st pharmacokinetic profile, dosing interval 11 days) was 1750 ng·h/mL. It also gave a half-life [1, 5] of 226 h, a Cmax [1, 6] of 13.7 ng/mL and an AUC(0-t) ([1]; human, plasma, oral, co-administered with darunavir/cobicistat 800/150 mg once daily, 2nd pharmacokinetic profile, dosing interval 11 days) of 1870 ng·h/mL. The half-life [1, 6] was 175 h, the Tmax ([1]; human, plasma, oral, co-administered with darunavir/cobicistat 800/150 mg once daily, 2nd pharmacokinetic profile, read-out: Tmax) was 8 h and the Cmax [1, 7] was 12.6 ng/mL. The half-life [1, 7] was 183 h, the Tmax ([1]; human, plasma, oral, co-administered with darunavir/cobicistat 800/150 mg once daily, 3rd pharmacokinetic profile, read-out: Tmax) was 4 h and the AUC(0-t) ([1]; human, plasma, oral, co-administered with darunavir/ritonavir 800/100 mg once daily, 1st pharmacokinetic profile, dosing interval 11 days) was 2650 ng·h/mL. The half-life ([1]; human, plasma, oral, co-administered with darunavir/ritonavir 800/100 mg once daily, 1st pharmacokinetic profile) was 227 h, the Tmax ([1]; human, plasma, oral, co-administered with darunavir/ritonavir 800/100 mg once daily, 1st pharmacokinetic profile, read-out: Tmax) was 8 h and the AUC(0-t) ([1]; human, plasma, oral, co-administered with darunavir/ritonavir 800/100 mg once daily, 2nd pharmacokinetic profile, dosing interval 11 days) was 2380 ng·h/mL. It also gave a half-life ([1]; human, plasma, oral, co-administered with darunavir/ritonavir 800/100 mg once daily, 2nd pharmacokinetic profile) of 275 h, a Tmax ([1]; human, plasma, oral, co-administered with darunavir/ritonavir 800/100 mg once daily, 2nd pharmacokinetic profile, read-out: Tmax) of 4 h and a half-life ([1]; human, plasma, oral, co-administered with darunavir/ritonavir 800/100 mg once daily, 3rd pharmacokinetic profile) of 266 h. For the same compound, the Tmax ([1]; human, plasma, oral, co-administered with darunavir/ritonavir 800/100 mg once daily, 3rd pharmacokinetic profile, read-out: Tmax) was 4 h, the AUC(0-t) ([1]; human, plasma, oral, co-administered with darunavir/cobicistat 800/150 mg once daily, 3rd (sixth overall) pharmacokinetic profile, dosing interval 10 days for practical reasons) was 1240 ng·h/mL and the “C0h (pre-dose plasma concentration)” value [2] was 6.2^a µg/L. The AUC(0-t) ([2]; human, plasma, oral, read-out: AUC264h) was 2350 ng·h/mL, the “increase of tacrolimus elimination half-life” value [3] was “sevenfold” and the “increase of tacrolimus exposure” value [3] was 57 fold. For the same compound, the CL/F [4] was 6.7 L/h and the T1/2 [4] was 15.6 h.

Source: PMC10163738, “Switch from a ritonavir to a cobicistat containing antiretroviral regimen and impact on tacrolimus levels in a kidney transplant recipient” (Virology Journal, 2023)
